Source: ChEMBL document CHEMBL5120922, “Discovery, Optimization, and Evaluation of Potent and Selective PI3Kδ-γ Dual Inhibitors for the Treatment of B-cell Malignancies” (J Med Chem, 2022)

Tests used:
[1] = target: T1, Phosphatidylinositol 4,5-bisphosphate 3-kinase catalytic subunit gamma isoform (Homo sapiens, UniProt P48736); experiment: Inhibition of N-terminal His6-tagged recombinant full length human PI3Kgamma expressed in baculovirus infected Sf21 insect cells at 0.1 uM by HTRF assay relative to control
Target sequence in this assay (P48736 whole entry, looked up, canonical isoform): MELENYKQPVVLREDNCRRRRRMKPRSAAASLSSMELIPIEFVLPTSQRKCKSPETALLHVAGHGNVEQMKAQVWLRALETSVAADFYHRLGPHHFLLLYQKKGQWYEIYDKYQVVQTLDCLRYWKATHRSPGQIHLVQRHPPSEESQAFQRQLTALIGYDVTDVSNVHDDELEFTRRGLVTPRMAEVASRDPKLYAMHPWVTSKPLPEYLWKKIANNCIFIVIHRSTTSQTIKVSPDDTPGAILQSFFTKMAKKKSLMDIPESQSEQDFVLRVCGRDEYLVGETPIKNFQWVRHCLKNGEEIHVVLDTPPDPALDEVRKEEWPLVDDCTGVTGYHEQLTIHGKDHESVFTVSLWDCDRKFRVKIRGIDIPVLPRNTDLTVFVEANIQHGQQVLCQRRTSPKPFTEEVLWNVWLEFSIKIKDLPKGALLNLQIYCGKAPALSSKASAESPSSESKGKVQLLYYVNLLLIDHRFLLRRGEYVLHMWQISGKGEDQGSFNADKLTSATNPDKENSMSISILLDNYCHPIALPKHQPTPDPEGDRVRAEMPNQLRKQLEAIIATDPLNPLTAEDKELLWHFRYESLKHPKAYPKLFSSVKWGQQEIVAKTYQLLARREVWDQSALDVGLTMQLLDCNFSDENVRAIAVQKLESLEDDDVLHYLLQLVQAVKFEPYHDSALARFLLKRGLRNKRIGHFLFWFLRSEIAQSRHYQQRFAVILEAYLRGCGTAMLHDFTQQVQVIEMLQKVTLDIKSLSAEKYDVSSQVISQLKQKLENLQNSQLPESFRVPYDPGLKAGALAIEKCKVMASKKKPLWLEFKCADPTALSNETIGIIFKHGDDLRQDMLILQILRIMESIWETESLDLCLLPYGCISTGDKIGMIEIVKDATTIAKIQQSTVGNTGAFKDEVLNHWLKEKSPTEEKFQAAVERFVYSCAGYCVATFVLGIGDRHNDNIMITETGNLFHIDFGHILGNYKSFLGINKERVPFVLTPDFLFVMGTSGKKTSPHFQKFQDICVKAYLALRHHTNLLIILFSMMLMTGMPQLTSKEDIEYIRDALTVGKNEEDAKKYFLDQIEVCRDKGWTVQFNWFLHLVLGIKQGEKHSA

[2] = test system: DOHH-2; experiment: Antiproliferative activity against human DOHH-2 cells assessed as cell growth inhibition measured after 72 hrs by MTT assay; format: functional, cell-based; details: DOHH-2, 72 h
[3] = test system: SU-DHL-6; experiment: Antiproliferative activity against human SU-DHL-6 cells assessed as cell growth inhibition measured after 72 hrs by MTT assay; format: functional, cell-based; details: SU-DHL-6, 72 h
[4] = test system: SUD4; experiment: Antiproliferative activity against human SU-DHL-4 cells assessed as cell growth inhibition measured after 72 hrs by MTT assay; format: functional, cell-based; details: SU-DHL-4, 72 h
[5] = target: T2, Phosphatidylinositol 4,5-bisphosphate 3-kinase catalytic subunit delta isoform (Homo sapiens) (UniProt O00329); experiment: Inhibition of N-terminal His6-tagged recombinant full length human PI3Kdelta expressed in baculovirus infected Sf21 insect cells at 0.1 uM by HTRF assay relative to control
T2 sequence (whole entry): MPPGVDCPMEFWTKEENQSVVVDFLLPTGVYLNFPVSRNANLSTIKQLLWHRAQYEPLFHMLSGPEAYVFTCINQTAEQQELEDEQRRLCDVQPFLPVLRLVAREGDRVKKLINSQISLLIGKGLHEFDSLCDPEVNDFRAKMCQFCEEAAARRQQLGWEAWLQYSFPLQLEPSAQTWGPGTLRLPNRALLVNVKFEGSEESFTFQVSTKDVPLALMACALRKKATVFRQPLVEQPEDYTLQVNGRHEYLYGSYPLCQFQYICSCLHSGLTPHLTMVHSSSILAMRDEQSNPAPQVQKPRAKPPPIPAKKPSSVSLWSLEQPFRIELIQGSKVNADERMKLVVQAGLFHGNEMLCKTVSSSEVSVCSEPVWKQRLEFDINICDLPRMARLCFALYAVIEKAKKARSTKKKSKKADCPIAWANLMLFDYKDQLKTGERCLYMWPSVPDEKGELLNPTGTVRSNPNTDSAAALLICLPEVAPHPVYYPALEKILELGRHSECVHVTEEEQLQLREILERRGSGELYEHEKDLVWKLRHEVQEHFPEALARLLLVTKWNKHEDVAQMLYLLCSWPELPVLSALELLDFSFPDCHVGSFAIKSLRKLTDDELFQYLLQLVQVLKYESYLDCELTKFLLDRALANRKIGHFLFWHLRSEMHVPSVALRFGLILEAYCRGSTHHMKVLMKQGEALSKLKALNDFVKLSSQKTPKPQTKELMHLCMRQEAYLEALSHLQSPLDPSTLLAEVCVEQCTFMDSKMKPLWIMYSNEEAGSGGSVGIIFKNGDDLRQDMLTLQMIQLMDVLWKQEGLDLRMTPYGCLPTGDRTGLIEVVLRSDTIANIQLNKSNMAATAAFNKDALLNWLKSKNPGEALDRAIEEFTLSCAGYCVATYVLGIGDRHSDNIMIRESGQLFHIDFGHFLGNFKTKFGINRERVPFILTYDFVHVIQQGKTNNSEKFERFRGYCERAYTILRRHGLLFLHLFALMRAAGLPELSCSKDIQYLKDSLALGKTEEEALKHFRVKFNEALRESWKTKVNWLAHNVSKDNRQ

[6] = target: T3, Phosphatidylinositol 4,5-bisphosphate 3-kinase catalytic subunit beta isoform (Homo sapiens, UniProt P42338); experiment: Inhibition of N-terminal His6-tagged recombinant full length human PI3Kbeta expressed in baculovirus infected Sf21 insect cells at 1 uM by HTRF assay relative to control
Target sequence in this assay (P42338 whole entry, looked up, canonical isoform): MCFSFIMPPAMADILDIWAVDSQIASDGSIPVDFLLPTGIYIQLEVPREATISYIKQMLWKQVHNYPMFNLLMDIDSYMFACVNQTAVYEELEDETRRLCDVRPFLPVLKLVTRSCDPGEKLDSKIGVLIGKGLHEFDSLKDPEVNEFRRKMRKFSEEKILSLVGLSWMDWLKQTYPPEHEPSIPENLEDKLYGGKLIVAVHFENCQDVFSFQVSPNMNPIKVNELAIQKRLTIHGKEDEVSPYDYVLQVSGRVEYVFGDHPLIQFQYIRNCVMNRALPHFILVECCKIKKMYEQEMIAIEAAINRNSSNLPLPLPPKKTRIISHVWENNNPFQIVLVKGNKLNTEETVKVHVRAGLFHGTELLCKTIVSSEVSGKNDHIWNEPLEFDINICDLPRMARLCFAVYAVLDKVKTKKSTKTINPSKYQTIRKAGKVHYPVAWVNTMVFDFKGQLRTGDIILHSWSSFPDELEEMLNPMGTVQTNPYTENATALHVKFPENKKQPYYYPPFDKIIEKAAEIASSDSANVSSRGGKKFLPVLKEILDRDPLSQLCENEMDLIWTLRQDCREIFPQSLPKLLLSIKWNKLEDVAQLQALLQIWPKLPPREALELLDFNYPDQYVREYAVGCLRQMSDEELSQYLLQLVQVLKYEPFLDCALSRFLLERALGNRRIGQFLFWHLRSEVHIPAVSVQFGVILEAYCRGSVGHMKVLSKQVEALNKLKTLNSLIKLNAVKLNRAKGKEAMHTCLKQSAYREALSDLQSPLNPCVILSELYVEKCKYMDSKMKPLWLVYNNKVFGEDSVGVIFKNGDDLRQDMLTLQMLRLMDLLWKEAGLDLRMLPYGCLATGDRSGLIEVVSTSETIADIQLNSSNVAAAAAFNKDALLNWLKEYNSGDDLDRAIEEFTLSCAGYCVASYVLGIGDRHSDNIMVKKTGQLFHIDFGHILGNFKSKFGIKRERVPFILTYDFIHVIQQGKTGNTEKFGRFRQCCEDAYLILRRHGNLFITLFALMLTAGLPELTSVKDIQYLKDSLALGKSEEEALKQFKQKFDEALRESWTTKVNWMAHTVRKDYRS

[7] = Metabolic stability in human liver microsomes assessed as clearance at 1 uM measured upto 60 mins in presence of NADPH by measuring protein; format: ADME, Microsome; details: 1 h
[8] = Metabolic stability in human liver microsomes assessed as half life at 1 uM measured upto 60 mins in presence of NADPH; format: ADME, Microsome
[9] = Metabolic stability in human liver microsomes assessed as compound remaining at 1 uM measured upto 60 mins in presence of NADPH; format: ADME, Microsome; details: read-out: Stability
[10] = target: T1, Phosphatidylinositol 4,5-bisphosphate 3-kinase catalytic subunit gamma isoform; experiment: Inhibition of N-terminal His6-tagged recombinant full length human PI3Kgamma expressed in baculovirus infected Sf21 insect cells incubated for 30 mins by HTRF assay
Target sequence in this assay (P48736 whole entry, canonical isoform): as the sequence (P48736 whole entry, looked up, canonical isoform) above

[11] = target: T4, Phosphatidylinositol 4,5-bisphosphate 3-kinase catalytic subunit delta isoform (Homo sapiens, UniProt O00329); experiment: Inhibition of N-terminal His6-tagged recombinant full length human PI3Kdelta expressed in baculovirus infected Sf21 insect cells incubated for 30 mins by HTRF assay
T4 sequence (O00329 whole entry): T2 sequence (whole entry)

[12] = target: T5, Phosphatidylinositol 4,5-bisphosphate 3-kinase catalytic subunit alpha isoform (Homo sapiens, UniProt P42336); experiment: Inhibition of N-terminal His6-tagged recombinant full length human PI3Kalpha expressed in baculovirus infected Sf21 insect cells incubated for 30 mins by HTRF assay
T5 sequence (P42336 whole entry, canonical isoform): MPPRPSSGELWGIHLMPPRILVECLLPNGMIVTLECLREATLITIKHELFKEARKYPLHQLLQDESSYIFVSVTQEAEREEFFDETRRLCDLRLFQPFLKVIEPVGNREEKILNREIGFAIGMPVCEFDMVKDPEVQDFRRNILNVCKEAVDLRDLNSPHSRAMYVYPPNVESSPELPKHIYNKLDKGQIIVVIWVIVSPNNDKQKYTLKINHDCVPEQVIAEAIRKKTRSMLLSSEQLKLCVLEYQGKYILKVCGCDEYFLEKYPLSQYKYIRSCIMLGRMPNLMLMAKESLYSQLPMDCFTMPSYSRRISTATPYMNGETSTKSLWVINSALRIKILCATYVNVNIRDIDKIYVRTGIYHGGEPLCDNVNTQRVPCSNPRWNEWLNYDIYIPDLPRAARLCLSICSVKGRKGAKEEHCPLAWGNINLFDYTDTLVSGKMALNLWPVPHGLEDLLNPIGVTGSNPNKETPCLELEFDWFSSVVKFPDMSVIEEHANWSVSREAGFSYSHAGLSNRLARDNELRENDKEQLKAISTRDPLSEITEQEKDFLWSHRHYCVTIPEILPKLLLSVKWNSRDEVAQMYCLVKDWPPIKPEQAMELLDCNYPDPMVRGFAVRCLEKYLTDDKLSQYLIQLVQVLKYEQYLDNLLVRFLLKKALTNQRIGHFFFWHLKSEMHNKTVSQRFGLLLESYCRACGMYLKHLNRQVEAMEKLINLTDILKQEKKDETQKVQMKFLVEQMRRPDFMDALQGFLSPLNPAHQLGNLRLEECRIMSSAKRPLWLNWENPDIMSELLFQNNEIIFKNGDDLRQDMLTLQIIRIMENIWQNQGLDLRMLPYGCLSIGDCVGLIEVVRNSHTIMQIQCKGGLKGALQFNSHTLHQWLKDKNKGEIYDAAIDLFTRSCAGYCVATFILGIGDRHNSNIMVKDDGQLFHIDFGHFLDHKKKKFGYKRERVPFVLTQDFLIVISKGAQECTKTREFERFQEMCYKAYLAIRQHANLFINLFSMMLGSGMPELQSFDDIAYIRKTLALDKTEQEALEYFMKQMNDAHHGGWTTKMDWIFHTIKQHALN

[13] = target: T3, Phosphatidylinositol 4,5-bisphosphate 3-kinase catalytic subunit beta isoform; experiment: Inhibition of N-terminal His6-tagged recombinant full length human PI3Kbeta expressed in baculovirus infected Sf21 insect cells incubated for 30 mins by HTRF assay
Target sequence in this assay (P42338 whole entry, canonical isoform): as the sequence (P42338 whole entry, looked up, canonical isoform) above

[14] = target: T5, Phosphatidylinositol 4,5-bisphosphate 3-kinase catalytic subunit alpha isoform; experiment: Inhibition of N-terminal His6-tagged recombinant full length human PI3Kalpha expressed in baculovirus infected Sf21 insect cells at 1 uM by HTRF assay relative to control
[15] = target: T2, Phosphatidylinositol 4,5-bisphosphate 3-kinase catalytic subunit delta isoform (Homo sapiens); experiment: Inhibition of N-terminal His6-tagged recombinant full length human PI3Kdelta expressed in baculovirus infected Sf21 insect cells at 1 uM by HTRF assay relative to control
[16] = target: T1, Phosphatidylinositol 4,5-bisphosphate 3-kinase catalytic subunit gamma isoform; experiment: Inhibition of N-terminal His6-tagged recombinant full length human PI3Kgamma expressed in baculovirus infected Sf21 insect cells at 1 uM by HTRF assay relative to control
Target sequence in this assay (P48736 whole entry, looked up, canonical isoform): as the sequence (P48736 whole entry, looked up, canonical isoform) above

Row | SMILES | inhibition [1] [%] | IC50 [2] [nM] | IC50 [3] [nM] | IC50 [4] [nM] | inhibition [5] [%] | inhibition [6] [%] | CLH [7] [mL/min/g] | half-life at 1 µM [8] [h] | remaining at 1 h, 1 µM [9] [%] | IC50 [10] [nM] | IC50 [11] [nM] | IC50 [12] [nM] | IC50 [13] [nM] | inhibition [14] [%] | inhibition [15] [%] | inhibition [16] [%]
1 | CCOc1cncc(-c2cccc3nc([C@@H]4CC[C@H](C)N4c4nc(N)nc(N)c4C#N)n(-c4ccccc4)c(=O)c23)c1 | -8 | 210 | 430 | 110 | -6 | -3 | 28.4 | 0.813 | 46.1 |  |  |  |  |  |  | 
2 | COc1cncc(-c2cccc3nc([C@@H]4CC[C@H](C)N4c4nc(N)nc(N)c4C#N)n(-c4cccc(F)c4)c(=O)c23)c1 |  | 520 | 110 | 430 |  |  |  |  |  | 9000 | 600 | 22000 | 429000 |  |  | 
3 | CCCn1cc(-c2cccc3nc([C@@H]4CC[C@H](C)N4c4nc(N)nc(N)c4C#N)n(-c4ccccc4)c(=O)c23)cn1 | 2 | 690 | 390 | 330 | -2 | 13 | 16.8 | 1.38 | 51.2 |  |  |  |  | 5 |  | 
4 | C[C@H]1CC[C@@H](c2nc3cccc(-c4cnn(C5CC5)c4)c3c(=O)n2-c2ccccc2)N1c1nc(N)nc(N)c1C#N | -2 | 390 | 260 | 220 | 0 | 2 | 17.8 | 1.3 | 45 |  |  |  |  | 23 |  | 
5 | C[C@H]1CC[C@@H](c2nc3cccc(Cl)c3c(=O)n2-c2ccccc2)N1c1nc(N)nc2[nH]cnc12 | 30 | 280 | 250 | 180 | 18 | 31 | 11.4 | 2.03 | 75.5 |  |  |  |  | 78 | -2 | 
6 | CCn1cc(-c2cccc3nc([C@@H]4CC[C@H](C)N4c4nc(N)nc(N)c4C#N)n(-c4ccccc4)c(=O)c23)cn1 | -10 | 740 | 530 | 290 | -4 | 6 | 17.4 | 1.33 | 60 |  |  |  |  | 1 |  | 
7 | N#Cc1c(N)nc(N)nc1N1[C@H](c2nc3cccc(Cl)c3c(=O)n2-c2cccc(F)c2)C[C@@H]2CCCC[C@@H]21 |  | 2800 | 1610 | 1300 |  |  |  |  |  | 280000 | 28000 |  |  |  |  | 
8 | C[C@H]1CC[C@@H](c2nc3c(F)cc(F)cc3c(=O)n2-c2cccnc2)N1c1nc(N)nc(N)c1C#N |  | 470 | 180 | 160 |  |  |  |  |  | 30000 | 3000 | 374000 | 445000 |  |  | 
9 | N#Cc1c(N)nc(N)nc1N1[C@H](c2nc3cccc(Cl)c3c(=O)n2N2CCOCC2)C[C@@H]2CCCC[C@@H]21 |  | 3860 | 1340 | 1040 |  |  |  |  |  | 312000 | 41000 |  |  |  |  | 
10 | C[C@H]1CC[C@@H](c2nc3cccc(Cl)c3c(=O)n2-c2ccccc2)N1c1nc(N)nc(N)c1C#N | 24 | 820 | 110 | 120 | -7 | 45 | 13 | 1.78 | 67.9 |  |  |  |  | 13 | -1 | -3
11 | C[C@H]1CC[C@@H](c2nc3cccc(C#Cc4cccnc4)c3c(=O)n2-c2ccccc2)N1c1nc(N)nc(N)c1C#N | 31 | 690 | 320 | 240 | 4 | 13 | 8 | 2.89 | 78.1 |  |  |  |  | 8 |  | 
12 | CC(C)n1cc(-c2cccc3nc([C@@H]4CC[C@H](C)N4c4nc(N)nc(N)c4C#N)n(-c4ccccc4)c(=O)c23)cn1 | 10 | 540 | 320 | 210 | 1 | 28 | 29.6 | 0.78 | 40.4 |  |  |  |  | 12 |  | 
13 | C[C@H]1CC[C@@H](c2nc3cccc(-c4cnn(C)c4)c3c(=O)n2-c2ccccc2)N1c1nc(N)nc(N)c1C#N | 12 | 680 | 420 | 300 | -8 | 20 | 13.8 | 1.67 | 64.7 |  |  |  |  | -1 |  | 
14 | COc1cncc(-c2cccc3nc([C@@H]4CC[C@H](C)N4c4nc(N)nc(N)c4C#N)n(-c4ccccc4)c(=O)c23)c1 | 12 | 290 | 190 | 120 |  | 19 | 20.8 | 1.11 | 59.9 |  |  |  |  | 13 |  | 
